Assay results as given in the NIST ThermoML archive (doi:10.1021/je400790d).

Assay: mn = molality of the nth substance listed, in mol/kg
Conditions: 100 kPa, Liquid, Vibrating tube method

CC[N+]1(C)CCOCC1.O=S(=O)([N-]S(=O)(=O)C(F)(F)F)C(F)(F)F + CC#N
mass density [kg/m3]
Conditions	m1 = 0.009434	m1 = 0.01654	m1 = 0.02652	m1 = 0.03788	m1 = 0.05256	m1 = 0.06858	m1 = 0.08695	m1 = 0.1078	m1 = 0.1316	m1 = 0.1634
298.15 K	778.145	779.333	780.985	782.85	785.24	787.81	790.74	794.037	797.714	802.54
303.15 K	772.716	773.905	775.56	777.429	779.815	782.385	785.318	788.611	792.286	797.108
308.15 K	767.263	768.452	770.11	771.974	774.365	776.944	779.877	783.146	786.836	791.661
313.15 K	761.774	762.964	764.619	766.483	768.876	771.442	774.373	777.657	781.334	786.155
318.15 K	756.247	757.44	759.113	760.976	763.372	765.945	768.855	772.158	775.832	780.648

CCCC[N+]1(C)CCOCC1.O=S(=O)([N-]S(=O)(=O)C(F)(F)F)C(F)(F)F + CC#N
mass density [kg/m3]
Conditions	m1 = 0.00879	m1 = 0.01653	m1 = 0.02761	m1 = 0.03802	m1 = 0.05226	m1 = 0.06737	m1 = 0.08642	m1 = 0.1101	m1 = 0.13	m1 = 0.1623
298.15 K	778.005	779.272	781.074	782.759	785.036	787.436	790.427	794.115	797.144	802.019
303.15 K	772.575	773.845	775.647	777.331	779.607	781.999	784.994	788.679	791.717	796.577
308.15 K	767.12	768.39	770.192	771.873	774.153	776.549	779.543	783.226	786.253	791.135
313.15 K	761.631	762.901	764.703	766.385	768.667	771.064	774.057	777.74	780.771	785.644
318.15 K	756.103	757.375	759.178	760.862	763.147	765.551	768.552	772.235	775.257	780.136
